Experimental findings from US10357492B2, “Levosimendan for use in the treatment of motor neuron diseases (E.G. ALS)” (Orion Corporation, priority 2014, dated 2019) are described below.

Data set [1] relates to Antibody Induced Myasthenia Gravis Model in Female Lewis Rats. Briefly: accelerated rotating rod test (Rotarod) in antibody induced myasthenia gravis model. The format is in vivo. Particulars: single oral dosage on day 2 (48 h after antibody); levosimendan 0.25 mg/kg, active metabolite (II) 0.025 mg/kg; measured 0.5 h, 1 h, 2 h after treatment; FIG. 1. The protocol: (§1) The effects of levosimendan and its active metabolite (II) on skeletal muscle weakness were studied in an experimental model of Myasthenia Gravis (Russell A J et al., Nat Med 18 (3), 2012, 452-5). Myasthenia Gravis was induced in female Lewis rats by injecting 500 μg/kg of nAChRα1/3/5 antibody (SC-58604, Santa Cruz Biotechnology) intraperitoneally on day 0. Animals with 40-70% drop in muscle strength from baseline at 48 h after administration of the antibody were randomized into treatment groups: 1) Vehicle control (n=6) (0.5% Methocel 5 ml/kg orally), 2) Levosimendan (n=6) (0.25 mg/kg orally), 3) Active metabolite (II) (n=6) (0.025 mg/kg orally).
Coordination, balance, and motor skill acquisition were tested using an accelerated rotating rod test (Rotarod, Ugo Basile, Comerio, Italy). Rats were placed on a rod that accelerated smoothly from 4 to 40 rpm over a period of 5 min. The length of time that each animal was able to stay on the rod was recorded. Three consecutive measurements were performed. Rats were trained for the test four times one day before and twice on the day of antibody injection. Effects of different drug treatments on Rotarod response were measured 0.5 h, 1 h, and 2 h after oral treatment on day 2, i.e. 48 hours after the induction of Myasthenia Gravis.
For orientation: Falling from the rotarod earlier than controls is read as motor impairment.

For data set [2] the test system is unchanged. Briefly: treadmill exercise capacity test in antibody induced myasthenia gravis model. Particulars: 2 h post-dosing of repeated oral dosage on day 3 (72 h after antibody); levosimendan 0.25 mg/kg, active metabolite (II) 0.025 mg/kg; FIG. 2. The format is in vivo. The protocol:
as §1
Exercise capacity measurements were performed with airtight treadmill (Accupacer treadmill, Accuscan Instruments, USA) connected to a respiratory gas analysing system. Rehearsals and exercise capacity measurements were started with familiarising the rats with the treadmill chambers for 15 minutes (restmill). The exercise program consisted of 15 min running at 10 m/min until the rat was incapable to keep up the speed despite of electric shock motivation. Rats were trained for the test three times one day before and twice on the day of antibody injection. Effects of different drug treatments on treadmill responses were measured 1 h and 2 h after oral treatment on day 3 (72 h after induction of Myasthenia Gravis).

Data set [3] in a line: pharmacokinetics (half-life). Particulars: rat, in vivo; "in rats" printed for the active metabolite (II) only; read-out: t½ (converted).

For the compound `CC1CC(=O)NN=C1c1ccc(NN=C(C#N)C#N)cc1` (single isomer, unassigned) [Levosimendan, [[4-(1,4,5,6-tetrahydro-4-methyl-6-oxo-3-pyridazinyl)phenyl]hydrazono]propanedinitrile], in data set [1], the “effect on muscle function in Rotarod test (time able to stay on the rotating rod)” value was “acute and transient improvement in muscle function”. For the same compound, the “effect on skeletal muscle function in treadmill test (exercise duration)” value in data set [2] is on record as “positive effect”. The half-life in data set [3] was 0.7 h.
Take `CC(=O)Nc1ccc(C2=NNC(=O)C[C@H]2C)cc1` [active metabolite (II), (R)—N-[4-(1,4,5,6-tetrahydro-4-methyl-6-oxo-3-pyridazinyl)phenyl]-acetamide]: in data set [1], the “effect on muscle function in Rotarod test (time able to stay on the rotating rod)” value is “acute and transient improvement in muscle function”. Moreover, the “effect on skeletal muscle function in treadmill test (exercise duration)” value in data set [2] was “positive effect”. The half-life in data set [3] was 5 h.
